Data published in US9775902B2, “Compounds and methods for treatment of stroke” (FIBROGEN, INC, priority 2006, dated 2017).
“And” between values parts separate entries of the source, which are not always exact repeats. Equal values may be shown once.

Test system: vascular endothelial growth factor (VEGF)
Experiment: Brain VEGF gene expression in mice after intravenous injection
Format: in vivo, Swiss Webster mice
Conditions: 20 mg/kg i.v., four hours, quantitative real time PCR normalized to 18s RNA, 20 mg/kg
Experimental: The effect of compounds of the present invention on regulation of cytoprotective and neuroprotective gene expression in brain was evaluated. In one series of experiments, male Swiss Webster mice were administered by intravenous injection various compounds of the present invention. Animals treated by intravenous injection received a 6 ml/kg volume of either 5% Dextrose with an equimolar amount of Meglumine (vehicle control) or 20 mg/kg of a compound of the present invention in 5% dextrose with an equimolar amount of Meglumine Animals were euthanized four hours later and their brains placed in RNAlater (Ambion, Austin Tex.) for subsequent analysis. Tissues were homogenized in Trizol (Invitrogen, Carlsbad Calif.) using 5-mm steel beads in a Mixer Mill (Qiagen, Valencia Calif.). RNA was isolated from the Trizol solution and then further purified using RNeasy kit (Qiagen). cDNA was prepared from […] total RNA using Omniscript reverse transcriptase (Qiagen) and random hexamers. Quantitative real time PCR was performed in a 7900HT instrument (Applied Biosystems, Foster City Calif.) using TaqMan Assays-on-Demand (Applied Biosystems). Gene expression levels were normalized to that of 18s RNA.

For O=C(O)CNC(=O)c1nc(Oc2ccccc2F)c2ccccc2c1O [Compound Z, {[1-(2-Fluoro-phenoxy)-4-hydroxy-isoquinoline-3-carbonyl]-amino}-acetic acid], the “VEGF gene expression in brain” value was 2.2 and 2.1.
